From US6689773B2, “Uracil substituted phenyl sulfamoyl carboxamides” (BASF Aktiengesellschaft, priority 2000, dated 2004)

What was measured:
Type in all cases: in vivo
[1] = tested on: ABUTH, Velvetleaf, Abutilon theophrasti, Medic.; assay: Postemergence herbicidal evaluation (Example 147); conditions: rating scale 0-9, two to three weeks after treatment
Protocol: (§1) Seedling plants were grown in jiffy flats for about two weeks. The test compounds were dispersed in 80/20 acetone/water mixtures containing 1.0% SUN-IT®II, a methylated seed oil, in sufficient quantities to provide the equivalent of about 0.016 to 0.032 kg per hectare of active compound when applied to the plants through a spray nozzle operating at 40 psi for a predetermined time. After spraying, the plants were placed on greenhouse benches and were cared for in accordance with conventional greenhouse procedures. Approximately two to three weeks after treatment, the seedling plants were examined and rated according to the rating scale (0-9) set forth below. Where more than one test is involved for a given compound, the data are averaged. [table] The scale is based upon a visual observation of plant stand, vigor, malformation, size, chlorosis and overall plant appearance as compared with a control. Plant species employed in these evaluations are reported by header abbreviation, common name and scientific name. [table]

[2] = tested on: ALOMY, Blackgrass, Alopecurus myosuroides; assay: Postemergence herbicidal evaluation (Example 147); conditions: rating scale 0-9, two to three weeks after treatment
Protocol: as §1

[3] = tested on: AMBEL, Ragweed, Common, Ambrosia artemiisifolia, L.; assay: Postemergence herbicidal evaluation (Example 147); conditions: rating scale 0-9, two to three weeks after treatment
Protocol: as §1

[4] = tested on: CHEAL, Lambsquarters, Chenopodium album, L. Common; assay: Postemergence herbicidal evaluation (Example 147); conditions: rating scale 0-9, two to three weeks after treatment
Protocol: as §1

[5] = tested on: DIGSA, Crabgrass, (Hairy) L, Digitaria sanguinalis, (L)Scop; assay: Postemergence herbicidal evaluation (Example 147); conditions: rating scale 0-9, two to three weeks after treatment
Protocol: as §1

[6] = tested on: ECHCG, Barnyardgrass, Echinochloa crusgalli, (L.)Beau; assay: Postemergence herbicidal evaluation (Example 147); conditions: rating scale 0-9, two to three weeks after treatment
Protocol: as §1

[7] = tested on: GLXMA, Soybean, Glycine max, (L.) Merr.; assay: Postemergence herbicidal evaluation (Example 147); conditions: rating scale 0-9, two to three weeks after treatment
Protocol: as §1

[8] = tested on: IPOHE, Morningglory, Ivyleaf, Ipomoea hederacea, (L)Jacq.; assay: Postemergence herbicidal evaluation (Example 147); conditions: rating scale 0-9, two to three weeks after treatment
Protocol: as §1

[9] = tested on: SETVI, Green foxtail, Setaria viridis, (L.)Beau; assay: Postemergence herbicidal evaluation (Example 147); conditions: rating scale 0-9, two to three weeks after treatment
Protocol: as §1

[10] = tested on: TRZAW, Winter wheat, Tritium Aestivum, L. (Winter); assay: Postemergence herbicidal evaluation (Example 147); conditions: rating scale 0-9, two to three weeks after treatment
Protocol: as §1

[11] = tested on: ZEAMX, Field corn, Zea mays L.; assay: Postemergence herbicidal evaluation (Example 147); conditions: rating scale 0-9, two to three weeks after treatment
Protocol: as §1

[12] = tested on: ABUTH, Velvetleaf, Abutilon theophrasti, Medic.; assay: Preemergence herbicidal evaluation (Example 148); conditions: rating scale 0-9, two to four weeks after treatment
Protocol: (§2) The scale is based upon a visual observation of plant stand, vigor, malformation, size, chlorosis and overall plant appearance as compared with a control.
(§3) The herbicidal activity of the compounds of the present invention was evaluated by the following tests wherein the seeds of a variety of monocotyledonous and dicotyledonous plants were separately mixed with potting soil and planted on top of approximately one inch of soil in separate pint cups. After planting, the cups were sprayed with the selected aqueous acetone solution containing test compound in sufficient quantity to provide the equivalent of about 0.125 to 0.250 kg per hectare of test compound per cup. The treated cups were then placed on greenhouse benches, watered and cared for in accordance with conventional greenhouse procedures. From two to four weeks after treatment, the tests were terminated and each cup was examined and rated according to the rating system provided in Example 94. When more than one test was performed for a given compound, the data were averaged.

[13] = tested on: ALOMY, Blackgrass, Alopecurus myosuroides; assay: Preemergence herbicidal evaluation (Example 148); conditions: rating scale 0-9, two to four weeks after treatment
Protocol: as §2, §3

[14] = tested on: AMBEL, Ragweed, Common, Ambrosia artemiisifolia, L.; assay: Preemergence herbicidal evaluation (Example 148); conditions: rating scale 0-9, two to four weeks after treatment
Protocol: as §2, §3

[15] = tested on: CHEAL, Lambsquarters, Chenopodium album, L. Common; assay: Preemergence herbicidal evaluation (Example 148); conditions: rating scale 0-9, two to four weeks after treatment
Protocol: as §2, §3

[16] = tested on: DIGSA, Crabgrass, (Hairy) L, Digitaria sanguinalis, (L)Scop; assay: Preemergence herbicidal evaluation (Example 148); conditions: rating scale 0-9, two to four weeks after treatment
Protocol: as §2, §3

[17] = tested on: ECHCG, Barnyardgrass, Echinochloa crusgalli, (L.)Beau; assay: Preemergence herbicidal evaluation (Example 148); conditions: rating scale 0-9, two to four weeks after treatment
Protocol: as §2, §3

[18] = tested on: GLXMA, Soybean, Glycine max, (L.) Merr.; assay: Preemergence herbicidal evaluation (Example 148); conditions: rating scale 0-9, two to four weeks after treatment
Protocol: as §2, §3

[19] = tested on: IPOHE, Morningglory, Ivyleaf, Ipomoea hederacea, (L)Jacq.; assay: Preemergence herbicidal evaluation (Example 148); conditions: rating scale 0-9, two to four weeks after treatment
Protocol: as §2, §3

[20] = tested on: SETVI, Green foxtail, Setaria viridis, (L.)Beau; assay: Preemergence herbicidal evaluation (Example 148); conditions: rating scale 0-9, two to four weeks after treatment
Protocol: as §2, §3

[21] = tested on: TRZAW, Winter wheat, Tritium Aestivum, L. (Winter); assay: Preemergence herbicidal evaluation (Example 148); conditions: rating scale 0-9, two to four weeks after treatment
Protocol: as §2, §3

[22] = tested on: XANST, Cocklebur, Xanthium strumariam; assay: Preemergence herbicidal evaluation (Example 148); conditions: rating scale 0-9, two to four weeks after treatment
Protocol: as §2, §3

[23] = tested on: ZEAMX, Field corn, Zea mays L.; assay: Preemergence herbicidal evaluation (Example 148); conditions: rating scale 0-9, two to four weeks after treatment
Protocol: as §2, §3

With `C#CCNS(=O)(=O)NC(=O)c1cc(-n2c(=O)cc(C(F)(F)F)n(C)c2=O)c(F)cc1Cl` [Example 71] the “Postemergence herbicidal rating ABUTH” value ([1]; rate 0.016 kg/ha) was 9.0, the “Postemergence herbicidal rating ABUTH” value ([1]; rate 0.032 kg/ha) was 9.0 and the “Postemergence herbicidal rating ALMOY” value ([2]; rate 0.016 kg/ha) was 1.0. The “Postemergence herbicidal rating ALMOY” value ([2]; rate 0.032 kg/ha) was 1.0, the “Postemergence herbicidal rating AMBEL” value ([3]; rate 0.016 kg/ha) was 6.0 and the “Postemergence herbicidal rating AMBEL” value ([3]; rate 0.032 kg/ha) was 9.0. The “Postemergence herbicidal rating CHEAL” value ([4]; rate 0.016 kg/ha) was 5.0, the “Postemergence herbicidal rating CHEAL” value ([4]; rate 0.032 kg/ha) was 5.0 and the “Postemergence herbicidal rating DIGSA” value ([5]; rate 0.016 kg/ha) was 2.0. The “Postemergence herbicidal rating DIGSA” value ([5]; rate 0.032 kg/ha) was 3.0, the “Postemergence herbicidal rating ECHCG” value ([6]; rate 0.016 kg/ha) was 2.0 and the “Postemergence herbicidal rating ECHCG” value ([6]; rate 0.032 kg/ha) was 3.0. The “Postemergence herbicidal rating GLXMA” value ([7]; rate 0.016 kg/ha) was 8.0, the “Postemergence herbicidal rating GLXMA” value ([7]; rate 0.032 kg/ha) was 8.0 and the “Postemergence herbicidal rating IPOHE” value ([8]; rate 0.016 kg/ha) was 8.0. The “Postemergence herbicidal rating IPOHE” value ([8]; rate 0.032 kg/ha) was 9.0, the “Postemergence herbicidal rating SETVI” value ([9]; rate 0.016 kg/ha) was 4.0 and the “Postemergence herbicidal rating SETVI” value ([9]; rate 0.032 kg/ha) was 5.0. For the same compound, the “Postemergence herbicidal rating TRZAW” value ([10]; rate 0.016 kg/ha) was 4.5, the “Postemergence herbicidal rating TRZAW” value ([10]; rate 0.032 kg/ha) was 4.5 and the “Postemergence herbicidal rating ZEAMX” value ([11]; rate 0.016 kg/ha) was 6.5. For the same compound, the “Postemergence herbicidal rating ZEAMX” value ([11]; rate 0.032 kg/ha) was 6.5, the “Preemergence herbicidal rating ABUTH” value ([12]; rate 0.125 kg/ha) was 9.0 and the “Preemergence herbicidal rating ABUTH” value ([12]; rate 0.25 kg/ha) was 9.0. The “Preemergence herbicidal rating ALMOY” value ([13]; rate 0.125 kg/ha) was 0.0, the “Preemergence herbicidal rating ALMOY” value ([13]; rate 0.25 kg/ha) was 0.0 and the “Preemergence herbicidal rating AMBEL” value ([14]; rate 0.125 kg/ha) was 8.0. For the same compound, the “Preemergence herbicidal rating AMBEL” value ([14]; rate 0.25 kg/ha) was 8.0, the “Preemergence herbicidal rating CHEAL” value ([15]; rate 0.125 kg/ha) was 9.0 and the “Preemergence herbicidal rating CHEAL” value ([15]; rate 0.25 kg/ha) was 7.0. For the same compound, the “Preemergence herbicidal rating DIGSA” value ([16]; rate 0.125 kg/ha) was 0.0, the “Preemergence herbicidal rating DIGSA” value ([16]; rate 0.25 kg/ha) was 3.0 and the “Preemergence herbicidal rating ECHCG” value ([17]; rate 0.125 kg/ha) was 0.0. For the same compound, the “Preemergence herbicidal rating ECHCG” value ([17]; rate 0.25 kg/ha) was 3.0, the “Preemergence herbicidal rating GLXMA” value ([18]; rate 0.125 kg/ha) was 0.0 and the “Preemergence herbicidal rating GLXMA” value ([18]; rate 0.25 kg/ha) was 2.0. For the same compound, the “Preemergence herbicidal rating IPOHE” value ([19]; rate 0.125 kg/ha) was 9.0, the “Preemergence herbicidal rating IPOHE” value ([19]; rate 0.25 kg/ha) was 9.0 and the “Preemergence herbicidal rating SETVI” value ([20]; rate 0.125 kg/ha) was 0.0. For the same compound, the “Preemergence herbicidal rating SETVI” value ([20]; rate 0.25 kg/ha) was 2.0, the “Preemergence herbicidal rating TRZAW” value ([21]; rate 0.125 kg/ha) was 0.0 and the “Preemergence herbicidal rating TRZAW” value ([21]; rate 0.25 kg/ha) was 0.0. For the same compound, the “Preemergence herbicidal rating XANST” value ([22]; rate 0.125 kg/ha) was 0.0, the “Preemergence herbicidal rating XANST” value ([22]; rate 0.25 kg/ha) was 7.0 and the “Preemergence herbicidal rating ZEAMX” value ([23]; rate 0.125 kg/ha) was 0.0. The “Preemergence herbicidal rating ZEAMX” value ([23]; rate 0.25 kg/ha) was 1.0.
